Values after ≈ are worked out from the molar mass of the structure shown. Read-outs that look alike come from different tables or passages of the source. Square brackets hold non-standard residues; d marks the D form. Peptide text beside a SMILES is read from it. dBip(4'-Cl) = N[C@H](Cc1ccc(-c2ccc(Cl)cc2)cc1)C(=O)O
Columns and labels:
[1] = tested on: Mupirocin-resistant MRSA (ATCC-BAA-1556); assay: Time-kill assay at 4xMIC (FIG. 1); type: cell-based, Staphylococcus aureus; conditions: 4×MIC
[2] = tested on: Mupirocin-resistant MRSA (ATCC-BAA-1556); assay: Bactericidal/static determination assay at 4xMIC (FIG. 2); type: cell-based, Staphylococcus aureus; conditions: 4×MIC
[3] = tested on: Staphylococcus aureus ATCC BAA-1717; assay: microbe, parasite or virus in culture; type: cell-based; conditions: ATCC BAA-1717
Description: The antibacterial potency of Compound 34 was measured using the in vitro broth microdilution assay under assay conditions described by the Clinical and Laboratory Standards Institute. […] The test substance was dissolved in 100% DMSO (unless stated below), suspended completely by sonication or vortexing, diluted by 2-fold serial titrations in the same vehicle, for a total of 10 test concentrations (final concentrations: 100, 50, 25, 12.5, 6.25, 3.125, 1.56, 0.78, 0.39, 0.2 μM). A 4 μL aliquot of each dilution was added to 196 μL of broth medium seeded with the organism suspension in wells of a 96 well plate (bacterial count: 2-8×10^5 colony forming units/mL final). The final volume was 200 μL in each well and the final DMSO concentration was 2 percent. The incubation time is either 1 or 2 days at 36° C. All strains tested underwent aerobic respiration, except for ATCC BAA-1805 and ATCC 29399. Following incubation, the test plates were visually examined and wells were scored for growth or complete growth inhibition to define the minimum inhibitory concentration. Each test substance was evaluated in duplicate and the results below are the duplicate test values.

[4] = tested on: S. aureus ECL 2963646; assay: microbe, parasite or virus in culture; type: cell-based
Description: (§1) The antibacterial potency of Compound 34 was measured using the in vitro broth microdilution assay under assay conditions described by the Clinical and Laboratory Standards Institute. […] The test substance was dissolved in 100% DMSO (unless stated below), suspended completely by sonication or vortexing, diluted by 2-fold serial titrations in the same vehicle, for a total of 11 test concentrations. A 4 μL aliquot of each dilution was added to 196 μL of broth medium seeded with the organism suspension in wells of a 96 well plate (bacterial count: 2-8×10^5 colony forming units/mL final). The final volume was 200 μL in each well and the final DMSO concentration was 2%. The incubation time is 1 day at 36° C. All strains tested underwent aerobic respiration. Following incubation, the test plates were visually examined and wells were scored for growth or complete growth inhibition to define the minimum inhibitory concentration. Each test substance was evaluated in duplicate and the results below are the duplicate test values. Vehicle-control and an active reference agent were used as blank and positive controls, respectively.

[5] = tested on: S. aureus NARSA VRS11b; assay: microbe, parasite or virus in culture; type: cell-based
Description: as §1

[6] = tested on: S. aureus NARSA VRS1; assay: microbe, parasite or virus in culture; type: cell-based
Description: as §1

[7] = tested on: S. aureus NARSA VRS2; assay: microbe, parasite or virus in culture; type: cell-based
Description: as §1

[8] = tested on: S. aureus NARSA VRS3a; assay: microbe, parasite or virus in culture; type: cell-based
Description: as §1

[9] = tested on: S. aureus (ATCC BAA-1556); assay: microbe, parasite or virus in culture
Description: S. aureus (BAA-1556) was from ATCC. Mupirocin (Cat # M2955) was purchased from TCI chemicals (India) Pvt. […] Ltd, India, Cation adjusted Mueller Hinton broth (CAMHB) and Mueller Hinton Agar (MHA) (Cat # M1657) were from HiMedia Laboratories Pvt. Ltd, India.
The MIC assay was done based on CLSI guidelines in a microtitre plate format (1, 2). Preparation and dilution of Test Item (TI) stock solutions: A 1280 μg/ml stock of Compound 34 was prepared by dissolving 1.28 mg in 1.0 ml of sterile water to obtain the Master Stock (MS) solution. The MS solution was diluted 2-fold to obtain a series of Working Stock (WS) solutions (Table 7). The final concentration of solvent in the assay was 2.5% and the assay volume was […].
Preparing the inoculum: One day before initiation of experiment, an isolated colony of S. aureus (ATCC BAA-1556) was inoculated into sterile CAMHB and incubated at 37° C. to exponential phase. After incubation, the turbidity was adjusted to that of a 0.5 McFarland Standard (approximately equivalent to 1.0×10^8 CFU/ml) and diluted to ˜1.0×10^6 CFU/ml.
MIC Assay: The MIC assay was performed in a 96 well microtitre plate in a total assay volume of 100 μl (Table 7). Each well containing different concentrations of test compound (concentration range between 0.015625 and 16.0 μg/ml) was inoculated with 50 μl of bacterial suspension (prepared from the inoculum grown overnight and adjusted approximately to 5.0×10^5 CFU/ml) along with culture control (CC, culture in broth), broth control (BC, broth only), and vehicle control (VC, 2.5% solvent in broth plus culture). The plate was incubated at 37° C. for 24 hr and turbidity was measured spectrophotometrically (Absorbance microplate reader, BioTek® India, ELx800™) at 600 nm and visually. The experiment was done in duplicates. The inoculum was also plated for enumeration of bacteria. The MIC was defined as the lowest concentration of test compound that prevented bacterial growth (lack of turbidity by OD at 600 nm and visual inspection relative to no growth control).

N=C(N)NCCC[C@@H](NC(=O)[C@@H](Cc1ccc(-c2ccc(Cl)cc2)cc1)NC(=O)[C@@H](CCCNC(=N)N)NC(=O)[C@H](N)Cc1ccc(-c2ccc(Cl)cc2)cc1)C(N)=O [Compound 34] (H-[dBip(4'-Cl)][dR][dBip(4'-Cl)][dR]-NH2)
time-kill: rate of killing compared to Linezolid, Retapamulin and Vancomycin [1]: more rapidly as compared to Linezolid, Retapamulin and Vancomycin
bactericidal activity compared to Linezolid, Retapamulin and Vancomycin [2]: higher bactericidal activity than Linezolid, Retapamulin and Vancomycin
MIC [3]: 3.13 µM (≈ 2.64 µg/mL)
MIC ([4]; ECL 2963646, read-out: MIC): 2.37 µM
MIC ([4]; S. aureus ECL 2963646, CAMHB II): 2.0 µg/mL
MIC ([5]; NARSA VRS11b, read-out: MIC): 1.18 µM
MIC ([5]; S. aureus NARSA VRS11b, CAMHB II): 1.0 µg/mL
MIC ([6]; NARSA VRS1, read-out: MIC): 2.37 µM
MIC ([6]; S. aureus NARSA VRS1, CAMHB II): 2.0 µg/mL
MIC ([7]; NARSA VRS2, read-out: MIC): 2.37 µM
MIC ([7]; S. aureus NARSA VRS2, CAMHB II): 2.0 µg/mL
MIC ([8]; NARSA VRS3a, read-out: MIC): 2.37 µM
MIC ([8]; S. aureus NARSA VRS3a, CAMHB II): 2.0 µg/mL
Mean MIC ([9]; ATCC BAA-1556, 24 h): 2.37 µM
Mean MIC ([9]; S. aureus (ATCC BAA-1556), CAMHB, 37° C., 24 hr): 2.00 µg/mL

Source: patent US20200157144A1, “ANTIMICROBIAL PEPTIDOMIMETICS” (priority 2017, published 2020)
